Data taken from US7569352B2, “Method for identifying modulators of the dioxin/aryl hydrocarbon receptor (AHR)” (InDex Pharmaceuticals AB, priority 2003, dated 2009).

Experiments:
TFF2 mRNA expression = assay: RNA blot of TFF2 mRNA expression in mouse hepatoma cells exposed to TCDD; assay type: cell-based
Experimental: (§1) (A) RNA blot (30 μg total RNA) showing mRNA expression in mouse hepatoma cells of TFF2, CYP1A1 and the housekeeping gene GAPDH after exposure to increasing concentrations of TCDD. Mouse hepatoma cells were cultured in 6 cm petri dishes and exposed to TCDD dissolved in dimethyl sulfoxid (DMSO, 0.1% total volume) at concentrations indicated in the figure, or vehicle alone (“0 nM”) for 24 hours before cell harvest and RNA isolation. The band intensity of TFF2 (B) and CYP1A1 (C) was measured by Phosphor Imager analysis and normalized against expression of GAPDH. The numbers represent the fold increase of TFF2 and CYP1A1 mRNA expression compared to the corresponding vehicle-treated control.
(§2) (A) RNA blot (30 μg total RNA) showing mRNA expression in mouse hepatoma cells of TFF2, CYP1A1 and the housekeeping gene GAPDH after exposure to TCDD at increasing length of time. […] The band intensity of TFF2 (B) and CYP1A1 (C) was measured by Phosphor Imager analysis and normalized against expression of GAPDH. […]
(§3) The glandular part of mouse stomachs was removed and snap-frozen in liquid nitrogen. […] The filters were hybridized with specific 32P-labeled cDNA fragments and exposed to autoradiographic film and band intensity was quantified by Phosphoimager analysis (Fuji).

CYP1A1 mRNA expression = assay: RNA blot of CYP1A1 mRNA expression in mouse hepatoma cells exposed to TCDD; assay type: cell-based
Experimental: as §1, §2, §3

[1] = 10 nM TCDD, increasing length of time, vs vehicle
[2] = increasing concentrations of TCDD, 24 hours, vs vehicle (DMSO)

Structure (SMILES): Clc1cc2c(cc1Cl)Oc1cc(Cl)c(Cl)cc1O2 [TCDD, 2,3,7,8-tetrachlorodibenzo-p-dioxin]
- TFF2 mRNA expression normalized against GAPDH (TFF2 mRNA expression; [1]): time-dependent increase
- TFF2 mRNA expression normalized against GAPDH (TFF2 mRNA expression; [2]): concentration-dependent increase
- CYP1A1 mRNA expression normalized against GAPDH (CYP1A1 mRNA expression; [1]): time-dependent increase
- CYP1A1 mRNA expression normalized against GAPDH (CYP1A1 mRNA expression; [2]): concentration-dependent increase
